Results from ChEMBL document CHEMBL3885881, “DrugMatrix”.

Species on record: Rattus norvegicus
Test: DrugMatrix - Regimen: Daily Repeat
Format: toxicity, organism-based, Sprague-Dawley
Design: regimen Daily Repeat, gender Male, age 6-8 weeks
Conditions: in vivo, po, route oral GAVAGE, vehicle .5 % CMC; for ABSOLUTE BASOPHIL / ABSOLUTE EOSINOPHIL / ABSOLUTE LYMPHOCYTE / ABSOLUTE MONOCYTE / ABSOLUTE SEGMENTED NEUTROPHIL / BASOPHIL / EOSINOPHIL / ERYTHROCYTE COUNT / HEMATOCRIT / HEMOGLOBIN / LEUKOCYTE COUNT / LYMPHOCYTE / MEAN CORPUSCULAR HEMOGLOBIN / MEAN CORPUSCULAR HEMOGLOBIN CONCENTRATION / MEAN CORPUSCULAR VOLUME / MONOCYTE / NEUTROPHIL / NUCLEATED RED BLOOD CELLS / PLATELET COUNT: tissue Blood; for ALANINE AMINOTRANSFERASE / ALBUMIN / ALKALINE PHOSPHATASE / ASPARTATE AMINOTRANSFERASE / BLOOD UREA NITROGEN / CARBON DIOXIDE / CHLORIDE / CHOLESTEROL / CREATINE PHOSPHOKINASE / CREATININE / GLUCOSE / LACTATE DEHYDROGENASE / LIPASE / PHOSPHORUS / POTASSIUM / SODIUM / TOTAL BILIRUBIN / TOTAL PROTEIN / URIC ACID: tissue Plasma
[1] = 88 mg/kg, 72 h, dose level Low, time 3 day
[2] = 88 mg/kg, 120 h, dose level Low, time 5 day
[3] = 750 mg/kg, 72 h, dose level High, time 3 day
[4] = 750 mg/kg, 120 h, dose level High, time 5 day

CCC1(c2ccccc2)C(=O)NCNC1=O [PRIMIDONE] was tested, and the “ABSOLUTE BASOPHIL” value [1] was 0 CELLS/uL, the “ABSOLUTE EOSINOPHIL” value [1] was 207.67 CELLS/uL and the “ABSOLUTE LYMPHOCYTE” value [1] was 14556.33 CELLS/uL. The “ABSOLUTE MONOCYTE” value [1] was 206 CELLS/uL, the “ABSOLUTE SEGMENTED NEUTROPHIL” value [1] was 1063.33 CELLS/uL and the BASOPHIL [1] was 0%. The EOSINOPHIL [1] was 1.33%, the “ERYTHROCYTE COUNT” value [1] was 5.49 x10E6/uL and the HEMATOCRIT [1] was 34.53%. For the same compound, the HEMOGLOBIN [1] was 13.03 G/DL, the “LEUKOCYTE COUNT” value [1] was 16.03 x10E3/uL and the LYMPHOCYTE [1] was 90.67%. The “MEAN CORPUSCULAR HEMOGLOBIN” value [1] was 23.87 pg, the “MEAN CORPUSCULAR HEMOGLOBIN CONCENTRATION” value [1] was 37.8 G/DL and the “MEAN CORPUSCULAR VOLUME” value [1] was 63.07 fL. The MONOCYTE [1] was 1.33%, the NEUTROPHIL [1] was 6.67% and the “NUCLEATED RED BLOOD CELLS” value [1] was 0 /100WBC. The “PLATELET COUNT” value [1] was 1338 x10E3/uL, the “ALANINE AMINOTRANSFERASE” value [1] was 44.67 u/L and the ALBUMIN [1] was 4.17 G/DL. The “ALKALINE PHOSPHATASE” value [1] was 329.33 u/L, the “ASPARTATE AMINOTRANSFERASE” value [1] was 77.33 u/L and the “BLOOD UREA NITROGEN” value [1] was 15 mg/dL. The “CARBON DIOXIDE” value [1] was 25.33 mmol/L, the CHLORIDE [1] was 105.33 MEQ/L and the CHOLESTEROL [1] was 72 mg/dL. For the same compound, the “CREATINE PHOSPHOKINASE” value [1] was 356 u/L, the CREATININE [1] was 0.16 mg/dL and the GLUCOSE [1] was 157.67 mg/dL. The “LACTATE DEHYDROGENASE” value [1] was 80 u/L, the LIPASE [1] was 9 u/L and the PHOSPHORUS [1] was 13.8 mg/dL. For the same compound, the POTASSIUM [1] was 6.58 MEQ/L, the SODIUM [1] was 144.83 MEQ/L and the “TOTAL BILIRUBIN” value [1] was 0.2 mg/dL. The “TOTAL PROTEIN” value [1] was 5.83 G/DL, the “URIC ACID” value [1] was 1.93 mg/dL and the “ABSOLUTE BASOPHIL” value [2] was 0 CELLS/uL. The “ABSOLUTE EOSINOPHIL” value [2] was 87 CELLS/uL, the “ABSOLUTE LYMPHOCYTE” value [2] was 14869 CELLS/uL and the “ABSOLUTE MONOCYTE” value [2] was 252 CELLS/uL. The “ABSOLUTE SEGMENTED NEUTROPHIL” value [2] was 1292 CELLS/uL, the BASOPHIL [2] was 0% and the EOSINOPHIL [2] was 0.33%. For the same compound, the “ERYTHROCYTE COUNT” value [2] was 5.5 x10E6/uL, the HEMATOCRIT [2] was 34.07% and the HEMOGLOBIN [2] was 13.03 G/DL. The “LEUKOCYTE COUNT” value [2] was 16.5 x10E3/uL, the LYMPHOCYTE [2] was 91.33% and the “MEAN CORPUSCULAR HEMOGLOBIN” value [2] was 23.67 pg. For the same compound, the “MEAN CORPUSCULAR HEMOGLOBIN CONCENTRATION” value [2] was 38.3 G/DL, the “MEAN CORPUSCULAR VOLUME” value [2] was 61.9 fL and the MONOCYTE [2] was 1.33%. For the same compound, the NEUTROPHIL [2] was 7%, the “NUCLEATED RED BLOOD CELLS” value [2] was 0 /100WBC and the “PLATELET COUNT” value [2] was 1298.67 x10E3/uL. The “ALANINE AMINOTRANSFERASE” value [2] was 49.67 u/L, the ALBUMIN [2] was 3.93 G/DL and the “ALKALINE PHOSPHATASE” value [2] was 300.67 u/L. The “ASPARTATE AMINOTRANSFERASE” value [2] was 79.67 u/L, the “BLOOD UREA NITROGEN” value [2] was 16.67 mg/dL and the “CARBON DIOXIDE” value [2] was 27.67 mmol/L. The CHLORIDE [2] was 106.67 MEQ/L, the CHOLESTEROL [2] was 63.67 mg/dL and the “CREATINE PHOSPHOKINASE” value [2] was 421.67 u/L. For the same compound, the CREATININE [2] was 0.21 mg/dL, the GLUCOSE [2] was 162 mg/dL and the “LACTATE DEHYDROGENASE” value [2] was 161 u/L. The LIPASE [2] was 8.67 u/L, the PHOSPHORUS [2] was 13.87 mg/dL and the POTASSIUM [2] was 6.54 MEQ/L. For the same compound, the SODIUM [2] was 145.5 MEQ/L, the “TOTAL BILIRUBIN” value [2] was 0.2 mg/dL and the “TOTAL PROTEIN” value [2] was 6.03 G/DL. For the same compound, the “URIC ACID” value [2] was 2.03 mg/dL, the “ABSOLUTE BASOPHIL” value [3] was 0 CELLS/uL and the “ABSOLUTE EOSINOPHIL” value [3] was 107 CELLS/uL. The “ABSOLUTE LYMPHOCYTE” value [3] was 6934.67 CELLS/uL, the “ABSOLUTE MONOCYTE” value [3] was 246.33 CELLS/uL and the “ABSOLUTE SEGMENTED NEUTROPHIL” value [3] was 1312 CELLS/uL. For the same compound, the BASOPHIL [3] was 0%, the EOSINOPHIL [3] was 1% and the “ERYTHROCYTE COUNT” value [3] was 6.1 x10E6/uL. The HEMATOCRIT [3] was 37.33%, the HEMOGLOBIN [3] was 14.33 G/DL and the “LEUKOCYTE COUNT” value [3] was 8.6 x10E3/uL. For the same compound, the LYMPHOCYTE [3] was 79.33%, the “MEAN CORPUSCULAR HEMOGLOBIN” value [3] was 23.6 pg and the “MEAN CORPUSCULAR HEMOGLOBIN CONCENTRATION” value [3] was 38.3 G/DL. For the same compound, the “MEAN CORPUSCULAR VOLUME” value [3] was 61.67 fL, the MONOCYTE [3] was 3% and the NEUTROPHIL [3] was 16.67%. The “NUCLEATED RED BLOOD CELLS” value [3] was 0.33 /100WBC, the “PLATELET COUNT” value [3] was 1338.67 x10E3/uL and the “ALANINE AMINOTRANSFERASE” value [3] was 48.5 u/L. The ALBUMIN [3] was 4.73 G/DL, the “ALKALINE PHOSPHATASE” value [3] was 307 u/L and the “ASPARTATE AMINOTRANSFERASE” value [3] was 85 u/L. The “BLOOD UREA NITROGEN” value [3] was 15.5 mg/dL, the “CARBON DIOXIDE” value [3] was 26.33 mmol/L and the CHLORIDE [3] was 107.5 MEQ/L. The CHOLESTEROL [3] was 66.67 mg/dL, the “CREATINE PHOSPHOKINASE” value [3] was 138 u/L and the CREATININE [3] was 0.24 mg/dL. The GLUCOSE [3] was 144.33 mg/dL, the “LACTATE DEHYDROGENASE” value [3] was 137.33 u/L and the LIPASE [3] was 8.5 u/L. The PHOSPHORUS [3] was 10.5 mg/dL, the POTASSIUM [3] was 5.94 MEQ/L and the SODIUM [3] was 150.9 MEQ/L. For the same compound, the “TOTAL BILIRUBIN” value [3] was 0.3 mg/dL, the “TOTAL PROTEIN” value [3] was 6.2 G/DL and the “URIC ACID” value [3] was 1 mg/dL. For the same compound, the “ABSOLUTE BASOPHIL” value [4] was 0 CELLS/uL, the “ABSOLUTE EOSINOPHIL” value [4] was 136.67 CELLS/uL and the “ABSOLUTE LYMPHOCYTE” value [4] was 11870 CELLS/uL. For the same compound, the “ABSOLUTE MONOCYTE” value [4] was 38.33 CELLS/uL, the “ABSOLUTE SEGMENTED NEUTROPHIL” value [4] was 755 CELLS/uL and the BASOPHIL [4] was 0%. For the same compound, the EOSINOPHIL [4] was 1%, the “ERYTHROCYTE COUNT” value [4] was 5.98 x10E6/uL and the HEMATOCRIT [4] was 37.3%. The HEMOGLOBIN [4] was 13.87 G/DL, the “LEUKOCYTE COUNT” value [4] was 12.8 x10E3/uL and the LYMPHOCYTE [4] was 92.67%. The “MEAN CORPUSCULAR HEMOGLOBIN” value [4] was 23.17 pg, the “MEAN CORPUSCULAR HEMOGLOBIN CONCENTRATION” value [4] was 37.17 G/DL and the “MEAN CORPUSCULAR VOLUME” value [4] was 62.37 fL. The MONOCYTE [4] was 0.33%, the NEUTROPHIL [4] was 6% and the “NUCLEATED RED BLOOD CELLS” value [4] was 0 /100WBC. The “PLATELET COUNT” value [4] was 1320.33 x10E3/uL, the “ALANINE AMINOTRANSFERASE” value [4] was 59.67 u/L and the ALBUMIN [4] was 4.13 G/DL. The “ALKALINE PHOSPHATASE” value [4] was 421 u/L, the “ASPARTATE AMINOTRANSFERASE” value [4] was 98.33 u/L and the “BLOOD UREA NITROGEN” value [4] was 15 mg/dL. The “CARBON DIOXIDE” value [4] was 25.33 mmol/L, the CHLORIDE [4] was 105.33 MEQ/L and the CHOLESTEROL [4] was 68.33 mg/dL. The “CREATINE PHOSPHOKINASE” value [4] was 186.67 u/L, the CREATININE [4] was 0.18 mg/dL and the GLUCOSE [4] was 159.33 mg/dL. For the same compound, the “LACTATE DEHYDROGENASE” value [4] was 96 u/L, the LIPASE [4] was 9 u/L and the PHOSPHORUS [4] was 13.2 mg/dL. For the same compound, the POTASSIUM [4] was 6.32 MEQ/L, the SODIUM [4] was 146.03 MEQ/L and the “TOTAL BILIRUBIN” value [4] was 0.2 mg/dL. The “TOTAL PROTEIN” value [4] was 6.17 G/DL and the “URIC ACID” value [4] was 2.07 mg/dL.
